Experimental data published in ChEMBL document CHEMBL5506068 (J Med Chem, 2024).
Active and inactive are the calls of the source. No cut-off for these calls is given here.

Legend:
Mu-type opioid receptor = Mu-type opioid receptor (Mus musculus, UniProt P42866); assay: Displacement of [3H]Naloxone from mouse MOR expressed in CHO cells assessed as dissociation constant incubated for […] by radioligand binding assay; assay type: cell-based
[1] = Abuse liability in male Sprague-Dawley rat assessed as reduction in reinforcement at 0.32 to 10 microg/kg administered per infusion; assay type: toxicity; conditions: in vivo, iv, dose 0.32-10 µg/kg
Mus musculus [2] = assay: Antinociception activity in male Swiss Webster mouse model assessed as increase in maximum possible effect at 0.05 mg/kg, sc measured until 3 hrs post injection by warm-water tail immersion assay; assay type: functional, organism-based
in vivo [3] = conditions: Swiss Webster, mouse, blood and plasma, sc, 0.1 mg/kg
Description: Ratio of drug level in Swiss Webster mouse blood to plasma at 0.1 mg/kg, sc measured after 60 mins by LC-MS/MS analysis

[4] = biological target: T1, Delta-type opioid receptor (Homo sapiens, UniProt P41143); assay: Agonist activity at human DOR expressed in CHO cells increase in [35S]GTPgammaS binding measured after […] by scintillation counter analysis relative to SNC80; assay type: functional, cell-based; conditions: filed as agonist
T1 sequence (P41143 whole entry): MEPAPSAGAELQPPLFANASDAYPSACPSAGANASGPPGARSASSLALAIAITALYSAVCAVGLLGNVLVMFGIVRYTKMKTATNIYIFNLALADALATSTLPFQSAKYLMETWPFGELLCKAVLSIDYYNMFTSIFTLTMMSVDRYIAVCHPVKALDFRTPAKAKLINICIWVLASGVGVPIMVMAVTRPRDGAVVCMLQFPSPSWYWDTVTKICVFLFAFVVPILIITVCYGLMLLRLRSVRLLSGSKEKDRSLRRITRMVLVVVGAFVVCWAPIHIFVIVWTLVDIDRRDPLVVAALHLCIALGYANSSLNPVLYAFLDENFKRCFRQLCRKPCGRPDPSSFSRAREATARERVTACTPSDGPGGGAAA

[5] = Toxicity in Swiss Webster mouse assessed as effect on average speed at 0.05 to 0.5 mg/kg,sc measured after 30 mins; assay type: organism-based; conditions: in vivo, 0.5 h, dose 0.05-0.5 mg/kg
Mus musculus [6] = assay: Antinociception activity in male Swiss Webster mouse model assessed as increase in maximum possible effect at 10 mg/kg, sc measured after 20 mins by warm-water tail immersion assay relative to control; assay type: functional
[7] = biological target: Kappa-type opioid receptor (Mus musculus, UniProt P33534); assay: Displacement of [3H]diprenorphine from mouse KOR expressed in CHO cells assessed as dissociation constant incubated for […] by radioligand binding assay; assay type: cell-based
Kappa-type opioid receptor, sequence (P33534 whole entry): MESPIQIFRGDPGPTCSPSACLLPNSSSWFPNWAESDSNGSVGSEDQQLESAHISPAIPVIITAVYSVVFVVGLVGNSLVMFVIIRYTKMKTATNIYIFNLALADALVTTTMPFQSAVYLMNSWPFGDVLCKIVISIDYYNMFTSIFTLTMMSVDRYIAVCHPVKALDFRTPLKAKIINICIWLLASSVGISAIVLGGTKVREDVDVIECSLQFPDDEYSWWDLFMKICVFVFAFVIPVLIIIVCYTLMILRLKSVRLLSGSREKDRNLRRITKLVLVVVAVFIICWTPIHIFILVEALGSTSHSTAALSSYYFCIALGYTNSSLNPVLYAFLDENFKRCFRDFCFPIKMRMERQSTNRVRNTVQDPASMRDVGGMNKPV

[8] = biological target: T1, Delta-type opioid receptor; assay: Displacement of [3H]diprenorphine from human DOR expressed in CHO cells assessed as dissociation constant incubated for […] by radioligand binding assay; assay type: cell-based
Mus musculus [9] = assay: Antinociception activity in male Swiss Webster mouse model assessed as effect on tail withdrawal latency at 0.05 to 0.1 mg/kg, sc pre incubated with nor-BNI for 24 hrs followed by compound addition and measured after 20 mins by warm water tail immersion assay; assay type: functional, organism-based; conditions: dose 0.05-0.1 mg/kg
in vivo [10] = conditions: Swiss Webster, mouse, blood and plasma, sc, 0.1 mg/kg; remark: listed apart in the source
Description: Ratio of drug level in Swiss Webster mouse blood to plasma at 0.1 mg/kg, sc measured after 10 mins by LC-MS/MS analysis

[11] = Drug uptake in Swiss Webster mouse plasma at 0.1 mg/kg, sc measured after 5 mins by LC-MS/MS analysis; assay type: ADME, organism-based; conditions: in vivo
in vivo [12] = conditions: Swiss Webster, mouse, blood and plasma, sc, 0.1 mg/kg; remark: listed apart in the source
Description: Ratio of drug level in Swiss Webster mouse blood to plasma at 0.1 mg/kg, sc measured after 30 mins by LC-MS/MS analysis

Mus musculus [13] = assay: Antinociception activity in male Swiss Webster mouse model assessed as increase in maximum possible effect at 0.05 mg/kg, sc measured after 6 hrs post injection by warm-water tail immersion assay; assay type: functional, organism-based
Mus musculus [14] = assay: Antinociception activity in male Swiss Webster mouse model assessed as increase in maximum possible effect at 0.1 mg/kg, sc measured after 30 to 360 mins post injection by warm-water tail immersion assay; assay type: functional, organism-based; conditions: time 30-360 min
Mus musculus [15] = assay: Antinociception activity in male Swiss Webster mouse model assessed as effect on tail withdrawal latency at 0.05 to 0.1 mg/kg, sc pre incubated with naltrindole for 30 mins followed by compound addition and measured after 20 mins by warm water tail immersion assay; assay type: functional, organism-based; conditions: dose 0.05-0.1 mg/kg
Mus musculus [16] = assay: Antinociception activity in male Swiss Webster mouse model assessed as effect on tail withdrawal latency at 0.05 to 0.1 mg/kg, sc pre incubated with nor-BNI/naltrindole for 24 hrs followed by compound addition and measured after 20 mins by warm water tail immersion assay; assay type: functional, organism-based; conditions: dose 0.05-0.1 mg/kg
[17] = Toxicity in Swiss Webster mouse assessed as effect on locomotion at 0.05 to 0.5 mg/kg,sc measured after 30 mins; assay type: organism-based; conditions: in vivo, 0.5 h, dose 0.05-0.5 mg/kg
[18] = Toxicity in Swiss Webster mouse assessed as reduction in sedative effect at 0.05 to 0.5 mg/kg,sc; assay type: organism-based; conditions: in vivo, dose 0.05-0.5 mg/kg

Mu-type opioid receptor, sequence (P42866 whole entry, the tested form may be a part): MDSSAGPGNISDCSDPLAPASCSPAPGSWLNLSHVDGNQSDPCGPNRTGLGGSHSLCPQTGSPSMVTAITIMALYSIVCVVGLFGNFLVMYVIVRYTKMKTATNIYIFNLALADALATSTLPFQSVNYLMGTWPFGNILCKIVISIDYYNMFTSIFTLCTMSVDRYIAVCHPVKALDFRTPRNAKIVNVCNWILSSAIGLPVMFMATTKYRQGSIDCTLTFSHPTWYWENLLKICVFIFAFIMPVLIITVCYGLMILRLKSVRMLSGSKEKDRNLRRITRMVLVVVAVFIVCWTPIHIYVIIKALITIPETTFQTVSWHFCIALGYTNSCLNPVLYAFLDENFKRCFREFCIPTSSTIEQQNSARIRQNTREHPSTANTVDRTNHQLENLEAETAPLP

**Q.** Which Kd (Mu-type opioid receptor) does the source give for `CN(C(=O)/C=C/c1ccco1)[C@@H]1CC[C@@]2(O)[C@H]3Cc4ccc(O)c5c4[C@@]2(CCN3CC2CC2)[C@H]1O5.Cl` here?
**A.** 780 pM

**Q.** What about the Activity [1] of the same molecule?
**A.** Non-Toxic

**Q.** What about the Activity (Mus musculus [2]) of the same molecule?
**A.** Active

**Q.** What about the blood plasma ratio at 1 h (in vivo [3]) of the same molecule?
**A.** 1.45

**Q.** What about the Emax [4] of the same molecule?
**A.** 96.1%

**Q.** What about the Activity [5] of the same molecule?
**A.** Toxic

**Q.** What about the MPE (Mus musculus [6]) of the same molecule?
**A.** 100%

**Q.** What about the Kd [7] of the same molecule?
**A.** 220 pM

**Q.** And the Kd [8]?
**A.** 7930 pM

**Q.** And the Activity (Mus musculus [9])?
**A.** inactive

**Q.** And the blood plasma ratio at 10 min (in vivo [10])?
**A.** 0.762

**Q.** And the Drug uptake [11]?
**A.** Active

**Q.** What about the blood plasma ratio at 0.5 h (in vivo [12]) of the same molecule?
**A.** 0.645

**Q.** And the Activity (Mus musculus [13])?
**A.** inactive

**Q.** What about the Activity (Mus musculus [14]) of the same molecule?
**A.** Active

**Q.** What about the Activity (Mus musculus [15]) of the same molecule?
**A.** inactive

**Q.** What about the Activity (Mus musculus [16]) of the same molecule?
**A.** inactive

**Q.** And the Activity [17]?
**A.** Toxic

**Q.** And the Activity [18]?
**A.** Toxic
